“Also recorded” adds a separate entry of the source.
How the values were obtained:
plasma testosterone [1] = assay: Plasma testosterone in rats four hours after oral gavage of increasing dosage (FIG. 1); type: in vivo; details: Sprague-Dawley rats, in olive oil
Procedure: The concentration of testosterone in the plasma of Sprague-Dawley rats was determined four hours after delivery by oral gavage of increasing dosage of the racemate or of the indicated enantiomer.
The effect of ketoconazole and the ketoconazole enantiomers on testosterone levels in the plasma of Sprague Dawley rats was determined. […] To generate the results shown in FIG. 1, fifteen groups (ten per group) of rats were used. The rats were maintained on a 14/10 hour light/dark cycle and allowed free access to food and water. Each rat was dosed with the indicated drug (or vehicle) at the indicated dosage via a gastric tube. All of the rats were dosed between 2.00 and 3.00 pm and were sacrificed four hours later (between 6.00 and 7.00 pm). Plasma was prepared and the concentration of testosterone determined by an enzyme linked immuno assay (ELISA).

[2] = oral racemic ketoconazole, healthy subjects; cited from earlier work
[3] = Plasma levels of the two ketoconazole enantiomers in patients after fourteen daily doses (FIG. 4, FIG. 5); type: in vivo, humans; details: for hepatic extraction (from the plasma into the liver): inferred from plasma profiles in patients; for plasma level (pharmacokinetic profile) of the enantiomer after racemic ketoconazole: 400 mg racemic ketoconazole (200 mg 2S,4R and 200 mg 2R,4S) once per day
Procedure: Each patient was given the appropriate drug once per day in the evening. After fourteen daily doses the level of each of the two enantiomers present in the plasma of the patients was determined at the indicated time points following the last dose of drug.
Assays were established and validated using isolated and purified enantiomers. […] Solid phase extraction (SPE) and HPLC/MS/MS were used to determine the concentration of the enantiomers 2R,4S and 2S,4R, of Ketoconzaole from human plasma. 2R,4S and 2S,4R Ketoconzaole were extracted from the plasma sample using SPE, 96 well plates packed with a reversed phase C8 extraction beds from Varian (Lake Forest, Calif.). An aliquot of the extract was injected onto a HPLC/MS/MS triple quadrupole mass spectrometer (Sciex API3000). A Chiralpak AD-H, 5 μm HPLC column (2.1×150 mm) from Chiral Technologies (West Chester, Pa.) preceded by an AD-H guard column (0.4×1.0 cm) were used to separate 2R,4S and 2S,4R Ketoconzaole and the internal standard terconazole. The peak area of multiple product ions (531.4→82.2, […], and 531.4→489.5) of the enantiomers of Ketoconzaole were summed and measured against the peak area of the product ion of the internal standard (terconazole, 534.5-÷ 219.3). Quantitation was performed using 1/x^2 weighted linear least squares regression line generated from similarly extracted plasma calibration samples ranging from 5 to 1000 ng/mL. All plasma was preserved with K3EDTA.

plasma testosterone [4] = assay: Time course of depression of plasma testosterone in rats after 200 mg/kg (FIG. 2); type: in vivo; details: Sprague-Dawley rats, 200 mg/kg oral gavage, indicated times after dosing
Procedure: The rats were maintained and dosed as described above. Plasma was prepared at the indicated times after dosing and the concentration of testosterone in the plasma determined by ELISA.

17,20 lyase = details: cited from earlier work
[5] = accelerated in the presence of water and elevated temperatures; cited from earlier work
[6] = isolated guinea pig hearts; cited from earlier work
[7] = ketoconazole treated patients; cited from earlier work
17α hydroxylase = molecular target: T1, 17α hydroxylase (Homo sapiens, UniProt P05093); details: cited from earlier work
T1 sequence (P05093 1-508): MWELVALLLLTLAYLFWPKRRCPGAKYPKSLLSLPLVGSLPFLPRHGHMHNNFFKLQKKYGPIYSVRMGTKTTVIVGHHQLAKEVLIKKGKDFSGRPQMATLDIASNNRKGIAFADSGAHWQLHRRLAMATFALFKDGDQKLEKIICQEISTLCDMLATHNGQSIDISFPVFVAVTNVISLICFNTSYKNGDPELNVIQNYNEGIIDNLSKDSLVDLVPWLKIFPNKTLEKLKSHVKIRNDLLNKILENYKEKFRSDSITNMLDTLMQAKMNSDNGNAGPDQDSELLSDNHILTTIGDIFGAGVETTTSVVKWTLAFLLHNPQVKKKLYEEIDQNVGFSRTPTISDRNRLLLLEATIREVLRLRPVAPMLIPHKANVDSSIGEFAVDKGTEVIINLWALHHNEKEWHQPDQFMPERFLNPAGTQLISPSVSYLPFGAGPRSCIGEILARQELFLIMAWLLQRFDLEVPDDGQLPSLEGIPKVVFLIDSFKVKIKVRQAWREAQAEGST

[8] = patients, after fourteen daily doses

Row | SMILES | lowering of plasma testosterone (plasma testosterone [1]) | plasma level of the enantiomer after racemic ketoconazole [2] | hepatic extraction (from the plasma into the liver) [3] | plasma level (pharmacokinetic profile) of the 2S,4R enantiomer given alone ([3]; patients, 200 mg 2S,4R enantiomer once per day, after fourteen daily doses) | plasma level (pharmacokinetic profile) of the enantiomer after racemic ketoconazole [3, 8] | time course of depression of plasma testosterone (plasma testosterone [4]; 200 mg/kg) | time course of depression of plasma testosterone (plasma testosterone [4]; listed as 2S,4R, 200 mg/kg) | potency toward 17,20 lyase (17,20 lyase) | degradation (oxidation) [5] | risk of cardiac arrhythmia [6] | level of liver specific enzymes in the serum [7] | time course of depression of plasma testosterone (plasma testosterone [4]) | inhibition of 17α hydroxylase (17α hydroxylase)
1 | CC(=O)N1CCN(c2ccc(OC[C@@H]3CO[C@@](Cn4ccnc4)(c4ccc(Cl)cc4Cl)O3)cc2)CC1 [2S,4R enantiomer] | more effective at lowering testosterone than any either racemic ketoconazole or the 2R,4S enantiomer of ketoconazole; also recorded: significantly more efficacious than both the ketoconazole racemate and the other cis enantiomer (2R,4S) | approximately three times greater than that of the 2R,4S enantiomer | relatively low hepatic extraction | very similar when given alone; also recorded: approximately the same as the plasma level of the 2S,4R enantiomer when patients are given both 200 mg 2S,4R and 200 mg 2R,4S | significantly greater than the pharmacokinetic profile of the 2R,4S enantiomer | more effective at lowering testosterone than either racemic ketoconazole or the other cis enantiomer present in racemic ketoconazole (2R,4S) | significantly more efficacious than 2R,4S with respect to reducing testosterone levels | more potent toward 17,20 lyase than is the other enantiomer 2R,4S | – | – | – | – | –
2 | CC(=O)N1CCN(c2ccc(OCC3COC(Cn4ccnc4)(c4ccc(Cl)cc4Cl)O3)cc2)CC1 (racemic) [racemic ketoconazole, 1-acetyl-4-[4-[[2-(2,4-dichlorophenyl)-2-[(1H-imidazol-1-yl)-methyl]-1,3-dioxolan-4-yl]methoxy]phenyl]piperazine] | dose dependent effect | – | – | – | – | – | – | inhibit | can undergo degradation (oxidation) | may be associated with an increased risk of cardiac arrhythmia | increase in these enzymes has been noted | testosterone levels recover following dosing | inhibit
3 | CC(=O)N1CCN(c2ccc(OC[C@H]3CO[C@](Cn4ccnc4)(c4ccc(Cl)cc4Cl)O3)cc2)CC1 (single isomer, unassigned) [2R,4S enantiomer, reference compound] | – | – | more efficient extraction | – | approximately one third of the plasma concentration of the 2S,4R enantiomer | – | – | – | – | – | – | – | –

— patent US20100280046A1, “Methods and Compositions for Treating Prostate Cancer, Benign Prostatic Hypertrophy, Polycystic Ovary Syndrome and Other Conditions” (DIOBEX, INC., priority 2006, published 2010)
